Results published in US8927718B2, “Fused heterocyclic ring derivative and use thereof” (Takeda Pharmaceutical Company Limited, priority 2009, dated 2015).

Target: T1, Smo (Mus musculus, UniProt P56726)
T1 construct: endogenous in cells; host or cells: NIH-3T3 cells stably carrying the Gli luciferase reporter
Test: Gli reporter luciferase assay in NIH-3T3/Gli reporter cells stimulated with mouse Shh-N end fragment
Format: cell-based
Conditions: NIH3T3, 1 μM compound, mouse Shh-N end fragment supernatant, 48 hr, luciferase activity, control without compound as 100, read-out: inhibitory rate (%) at 1 μM
Description: Gli reporter plasmid was constructed by inserting 8× Gli-binding site and chicken δ-crystalline promoter into the upstream of luc+ of pGL3 (Promega).
HEK293 cells were grown in D-MEM medium (Invitrogen) containing 10% fetal bovine serum in a 10 cm dish and pcDNA3.1/mShh-N was introduced into the cells using FuGENE6 (Roche Applied Science). Thereafter, the HEK293 cells were cultured in a carbon dioxide gas incubator at 37° C. for 24 hours, and the medium was exchanged with D-MEM medium (Invitrogen) containing 2% fetal bovine serum. After culturing for 48 hr, a culture supernatant containing recombinant type mouse Shh-N end fragment was obtained by filtration using a filter ([…]).
Using D-MEM (Invitrogen) containing 10% fetal bovine serum, expression plasmid pcDNA3.1 and Gli reporter plasmid (pGL3/δ-cry promoter, 8× Gli binding site) produced by the method of Experimental Example 1 were introduced into NIH-3T3 cells grown in a 10 cm dish by the use of FuGENE6 (Roche Applied Science).
After culture for 24 hr, the cells were recovered, suspended in D-MEM medium containing 10% fetal bovine serum and supplemented with Geneticin (Life Technologies Oriental, Inc.) to a final concentration of 500 μg/ml, diluted to 10^4 cells/ml, plated on a 96 well plate, and cultured in a carbon dioxide gas incubator at 37° C. to give Geneticin resistant transformed cell line. […]
NIH-3T3/Gli reporter cells cultured in D-MEM (Invitrogen) containing 10% fetal bovine serum were plated in a 96 well white plate at 1×10^4 cells/well, and cultured overnight in a carbon dioxide gas incubator at 37° C. […] Bright-Glo (Promega, 50 μl) was added, and the mixture was stirred, after which luciferase activity was measured by EnVision (PerkinElmer). The inhibition rate was calculated based on the luciferase activity of the control without addition of the compound as 100.

T1 sequence (P56726 33-793): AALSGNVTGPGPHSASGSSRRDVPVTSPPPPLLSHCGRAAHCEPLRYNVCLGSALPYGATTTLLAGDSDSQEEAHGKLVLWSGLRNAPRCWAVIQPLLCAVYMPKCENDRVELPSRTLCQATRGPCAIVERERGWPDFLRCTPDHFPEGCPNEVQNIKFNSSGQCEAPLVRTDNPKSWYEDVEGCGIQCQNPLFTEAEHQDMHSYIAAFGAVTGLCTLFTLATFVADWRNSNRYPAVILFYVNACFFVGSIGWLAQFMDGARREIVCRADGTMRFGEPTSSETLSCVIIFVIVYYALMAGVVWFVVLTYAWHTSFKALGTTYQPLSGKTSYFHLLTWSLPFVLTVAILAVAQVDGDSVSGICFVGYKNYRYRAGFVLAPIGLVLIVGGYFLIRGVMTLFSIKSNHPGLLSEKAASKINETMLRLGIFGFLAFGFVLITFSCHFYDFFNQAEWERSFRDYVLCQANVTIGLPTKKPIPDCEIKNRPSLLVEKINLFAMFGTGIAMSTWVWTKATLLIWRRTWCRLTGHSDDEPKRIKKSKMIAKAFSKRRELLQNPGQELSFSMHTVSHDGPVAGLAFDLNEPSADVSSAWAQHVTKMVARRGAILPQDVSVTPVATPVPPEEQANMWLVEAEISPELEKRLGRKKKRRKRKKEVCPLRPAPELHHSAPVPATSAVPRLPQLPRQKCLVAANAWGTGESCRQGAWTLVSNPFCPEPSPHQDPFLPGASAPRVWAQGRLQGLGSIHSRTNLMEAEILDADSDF

inhibition at 1 µM	SMILES
100%	CCc1c(C(=O)NC2CCN(C(=O)CO)CC2)n(C)c2cc(CC)n(CC(=O)c3ccccc3)c(=O)c12 [Example 1, 3,6-diethyl-N-[1-(hydroxyacetyl)piperidin-4-yl]-1-methyl-4-oxo-5-(2-oxo-2-phenylethyl)-4,5-dihydro-1H-pyrrolo[3,2-c]pyridine-2-carboxamide]
100%	C=Cc1c(C(=O)NC2CCN(C(=O)CO)CC2)n(C)c2cc(CC)n(CC(=O)c3ccccc3)c(=O)c12 [Example 2, 3-ethenyl-6-ethyl-N-[1-(hydroxyacetyl)piperidin-4-yl]-1-methyl-4-oxo-5-(2-oxo-2-phenylethyl)-4,5-dihydro-1H-pyrrolo[3,2-c]pyridine-2-carboxamide]
98%	CCNc1c(C(=O)NC2CCN(C(=O)CO)CC2)n(C)c2cc(CC)n(CC(=O)c3ccccc3)c(=O)c12 [Example 32, 6-ethyl-3-(ethylamino)-N-[1-(hydroxyacetyl)piperidin-4-yl]-1-methyl-4-oxo-5-(2-oxo-2-phenylethyl)-4,5-dihydro-1H-pyrrolo[3,2-c]pyridine-2-carboxamide]
